Results on 24 molecules are retold here after ChEMBL document CHEMBL1201862, “PubChem BioAssay data set” (2004).

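A five-concentration, 48-hour dose response in 96-well plates underlies each endpoint, interpolated linearly between surrounding concentrations. The concentration for 50% growth inhibition is given as GI50.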 Active and inactive are the calls of the source. Cut-off read from the data, not from the text of the source: active = GI50 up to about 1.1 µM and inactive = higher.

Among the test systems are M19-MEL; LXFL 529; HOP-18; RXF 631; DU-145; MDA-MB-231; PC-3; T47D; MDA-MB-435.
Experiment in all cases: NCI-60 cell line screen, 48 h

As to `CC1=NC=C(O)c2ccccc2O1`, the GI50 in the test with M19-MEL and in the test with LXFL 529 was > 100 µM (inactive) each time.
Consider `CSc1cc(-c2cc3ccccc3o2)oc(=O)c1C#N`, for which the GI50 with HOP-18 was 0.637 µM (active); in the test with RXF 631, 64.7 µM (inactive); in the test with LXFL 529, > 100 µM (inactive).
As for `COc1cc2c(cc1OC)-c1cc3ccccc3c[n+]1CC2`, the GI50 in the test on DU-145 is > 100 µM (inactive); with MDA-MB-231, > 100 µM (inactive); in the test with PC-3, > 100 µM (inactive); in the test with T47D it was 42.6 µM (inactive); in the test on MDA-MB-435, > 100 µM (inactive).
Consider `O=C1Sc2ccccc2/C1=N/Nc1ccccc1[N+](=O)[O-]`, for which the GI50 is > 100 µM (inactive) in the test with DU-145, > 100 µM (inactive) with PC-3, 10.2 µM (inactive) in the test on T47D and > 100 µM (inactive) with MDA-MB-435.
Regarding `Oc1ccc2ccccc2c1/N=N/c1cccc2ccccc12`, the GI50 is > 100 µM (inactive) with DU-145; 49.9 µM (inactive) with MDA-MB-231; > 100 µM (inactive) with PC-3; > 100 µM (inactive) in the test on T47D; > 100 µM (inactive) with MDA-MB-435.
`N#Cc1ccc(-c2nc(C#N)c(N)o2)cc1`: the GI50 in the test on DU-145, with MDA-MB-231, in the test with PC-3, in the test on T47D and in the test with MDA-MB-435 was > 10 µM (inactive) in each case.
For the molecule `C/C(=N\NS(=O)(=O)c1ccccc1)c1ccccc1`, the GI50 with HOP-18 is > 100 µM (inactive).
Take `Cc1cn(C2CC(O)C(CO)C2C)c(=O)[nH]c1=O` (centres undefined): the GI50 in the test with HOP-18, in the test on M19-MEL, in the test on RXF 631 and in the test with LXFL 529 was > 100 µM (inactive) each time.
As for `CCOC(=O)/C=C(\C)c1ccc(Cl)cc1`, the GI50 in the test with HOP-18, in the test with RXF 631 and in the test on LXFL 529 was > 100 µM (inactive) throughout.
On to `C=C1C[C@@H]2C[C@@H](C)CC(O)[C@]2(CCCN)C1O` (some centres undefined), for which the GI50 in the test on HOP-18, in the test with M19-MEL, with RXF 631 and in the test with LXFL 529 was > 100 µM (inactive) each time.
Take `Nc1ccc(Sc2nnc(N)s2)cc1`: the GI50 in the test on MDA-MB-231, with PC-3, in the test on T47D and in the test with MDA-MB-435 was > 100 µM (inactive) each time.
For the molecule `CCOC(=O)/C=C/c1c(C)[nH]c(=O)[nH]c1=O`, the GI50 with HOP-18 and in the test on M19-MEL was > 250 µM (inactive) each time.
With `O=C1CNc2cc(N3CCCCC3)ccc2N1`, the GI50 was > 100 µM (inactive) in the test on DU-145, > 100 µM (inactive) in the test on PC-3, > 100 µM (inactive) in the test on T47D and 60.4 µM (inactive) in the test on MDA-MB-435.
Regarding `O=C1C(=O)c2ccccc2C=C1[N+](=O)[O-]`, the GI50 was 49 µM (inactive) in the test on DU-145; 18.1 µM (inactive) in the test with MDA-MB-231; 48.2 µM (inactive) with PC-3; 32.8 µM (inactive) in the test with T47D; 16.8 µM (inactive) in the test with MDA-MB-435.
Turning to `CCCCCCCCCCCCCCCCCc1cc(Cl)nc(Cl)n1`, the GI50 in the test on PC-3 and with MDA-MB-435 was > 100 µM (inactive) in each case.
Regarding `COc1cc(O)c2c(c1)C(=O)c1cc(C)cc(O)c1C2=O` [PHYSCION], the GI50 is 51.9 µM (inactive) in the test with HOP-18, > 100 µM (inactive) in the test with M19-MEL, > 100 µM (inactive) in the test on RXF 631 and > 100 µM (inactive) in the test with LXFL 529.
In the case of `O=C1N/C(=N/N=C/c2c[nH]c3ccccc23)N/C1=C\c1cccs1`, the GI50 in the test on DU-145 is > 100 µM (inactive); in the test with MDA-MB-231, 40.4 µM (inactive); in the test with PC-3 it was 16.1 µM (inactive); in the test with T47D, > 100 µM (inactive); with MDA-MB-435, 43.3 µM (inactive).
Consider `CC1(C)O[C@@H](C[C@]2(C#N)C[C@H](CCl)OC(C)(C)O2)C[C@@H](C#N)O1`, for which the GI50 with HOP-18 and in the test with M19-MEL was > 100 µM (inactive) each time.
For the molecule `O=C(Nc1cccc(O)c1)C(=O)C(C(=O)c1ccccc1F)C1OC(=O)c2ccccc21` (centres undefined), the GI50 in the test with M19-MEL was 18.1 µM (inactive); in the test on RXF 631 it was 21.6 µM (inactive); in the test with LXFL 529, 16.4 µM (inactive).
Regarding `CCSc1nc(N/N=C/c2cccs2)c2cnn(CO)c2n1`, the GI50 is 10.3 µM (inactive) in the test on DU-145; 18.3 µM (inactive) in the test on MDA-MB-231; 6.58 µM (inactive) in the test with PC-3; 3.8 µM (inactive) in the test on T47D; 6.25 µM (inactive) in the test on MDA-MB-435.
Take `CN1CCN(P2(=S)Oc3ccc4ccccc4c3-c3c(ccc4ccccc34)O2)CC1`: the results for the GI50 in the test with HOP-18 and in the test on M19-MEL were > 65.2 µM (inactive) and 30.3 µM (inactive), respectively.
With `c1ccc(CCn2cncn2)cc1`, the GI50 in the test on M19-MEL, with RXF 631 and with LXFL 529 was > 100 µM (inactive) throughout.
In the case of `CC(C)=CCC/C(C)=C/CCC1(C)C=Cc2c(c3ccccc3oc2=O)O1` (centres undefined), the GI50 in the test with HOP-18 and with M19-MEL was 17.3 µM (inactive) in each case.
Take `COc1cc(O)cc(/C=C/c2ccc(O)cc2)c1`: the GI50 with DU-145 is 39 µM (inactive); in the test with MDA-MB-231 it was 16 µM (inactive); in the test with PC-3 it was 18 µM (inactive); with T47D, 44.7 µM (inactive); in the test with MDA-MB-435, 31.3 µM (inactive).
